Data on seven compounds can be found in publication PMC7881012, “Human ACE2 peptide-mimics block SARS-CoV-2 pulmonary cells infection” (Communications Biology, 2021).

Where two headings read alike, the source gives them in different places. Square brackets hold non-standard residues; d marks the D form. Peptide text beside a SMILES is read from it. hTyr = N[C@@H](CCc1ccc(O)cc1)C(=O)O

Data set [1] relates to SARS-CoV-2 clinical isolate SARS-CoV-2/PSL2020 in Vero-E6 cells. The settings on record: for % Inhibition, Moyenne / % Inhibition, Q2 (Median): clinical isolate /PSL2020 in Vero-E6 cells, 48 h, 10 µM; for % Inhibition of SARSCoV-2 replication at 10 μM: mean of at least three independent experiments.
Data set [2] concerns the target SARS-CoV-2 spike RBD (Fc-tagged 2019-nCoV RBD-SD1) (Severe acute respiratory syndrome coronavirus 2, UniProt P0DTC2). Put plainly: biochemical. The settings on record: for kon: read-out: ka, association constant; for koff: read-out: kdis, dissociation constant. It counts as binding.
Data set [3] relates to SARS-CoV-2 clinical isolate SARS-CoV-2/PSL2020 in Calu-3 cells. The settings on record: clinical isolate /PSL2020 in Calu-3 cells, 48 h.
Data set [4] has as its system Vero-E6 cells. Conditions: 10 µM.
Data set [5] has as its system Vero-E6 cells.
In data set [6] the test system is Calu-3 cells.
Data set [7] concerns SARS-CoV-2 clinical isolate SARS-CoV-2/PSL2020 in Calu-3 cells. Format: cell-based.
Data set [8] in a line: HPLC retention time (LC-MS method B). It counts as physicochemical. The settings on record: method B: X-Select CSH C18 XP, 0.1% formic acid water/acetonitrile, 5-100% B in 3.2 min, 1.8 mL min^−1, 40 °C; used as indicator of hydrophobicity.
Data set [9] deals with Calu-3 cells. Conditions: 10 μM (150 times the IC50); MTT and annexin-V/PI, 24, 48 or 72 h (Fig. 3f).
The nature of data set [10]: Helical content by circular dichroism. Format: physicochemical. Conditions: 60 µM peptide, 50 mM sodium phosphate buffer pH 7.4, 25 °C, DichroWeb CDSSTR deconvolution. An excerpt: The conformation of synthesized peptides in aqueous solution was investigated by circular dichroism (CD) spectroscopy. […] The deconvolution of the CD spectra using DichroWeb[25] allowed us to estimate the helical population for each peptide, which is reported in Table 1. Overall, an excellent agreement was observed between the Agadir-computed values and the experimental helical population inferred from CD data. […] The introduction of a proline residue in peptide P5 has a strong destabilizing effect on helical conformation (17%) whereas Leu/hTyr substitution only led to a slight decrease of the helical content (P7 versus P6 and P10 versus P8).
Fig. 2 Far-UV CD spectra of synthesized peptides. […] CD measurements are reported as molar ellipticity per residue.
CD spectra were recorded on a Jasco J-815 CD spectropolarimeter equipped with a Peltier temperature controller. Data were obtained at 25 °C over a wavelength range between 185 nm and 270 nm, using a wavelength interval of 0.2 nm and a scan rate of 20 nm min^−1. Peptide samples were prepared at a concentration of 60 µM in 50 mM sodium phosphate buffer, pH 7.4, in a quartz cell of 1 mm path length. CD experiments were processed and plotted with R program. CD spectra were analyzed using DICHROWEB web server and CDSSTR deconvolution algorithm.

The mark [11] stands for this setting: BLI EXP1, sample conc. ACE2 10 nM, P8 100 nM, P9 and P10 1000 nM.
The mark [12] stands for this setting: BLI EXP2, sample conc. ACE2 100 nM, P8 1000 nM, P9 and P10 1111 nM.
[13] abbreviates: BLI EXP3, sample conc. ACE2 100 nM, P9 10000 nM, P10 1000 nM.

In the case of `CSCC[C@H](NC(=O)[C@H](Cc1ccccc1)NC(=O)[C@H](CCCCN)NC(=O)[C@H](CC(=O)O)NC(=O)[C@H](CC(C)C)NC(=O)[C@H](Cc1ccccc1)NC(=O)[C@@H](NC(=O)[C@H](CCCCN)NC(=O)[C@H](CCc1ccc(O)cc1)NC(=O)[C@H](CCC(N)=O)NC(=O)[C@H](CCC(=O)O)NC(=O)[C@H](CCC(=O)O)NC(=O)[C@H](CC(C)C)NC(=O)[C@H](C)NC(=O)[C@@H](N)CO)[C@@H](C)O)C(=O)N[C@@H](Cc1c[nH]cn1)C(=O)N[C@@H](CCC(=O)O)C(=O)N[C@@H](CC(C)C)C(=O)N[C@@H](CCC(=O)O)C(=O)N[C@@H](CC(=O)O)C(=O)N[C@@H](CC(C)C)C(=O)N[C@@H](CC(C)C)C(=O)N[C@@H](Cc1ccc(O)cc1)C(=O)N[C@@H](CCC(N)=O)C(=O)N[C@@H](CC(C)C)C(=O)N[C@@H](CO)C(=O)N[C@@H](CC(C)C)C(N)=O` [P9] (H-SALEEQ[hTyr]KTFLDKFMHELEDLLYQLSL-NH2), the “% Inhibition, Moyenne” value in [1] is 94.5%. Moreover, in [1], the “% Inhibition, Q2 (Median)” value turned out to be 94.5%. The kon in [2] (setting [11]) was 1020 M⁻¹ s⁻¹; in data set [2] (setting [12]), 1100 M⁻¹ s⁻¹; in data set [2] (setting [13]) it was 254 M⁻¹ s⁻¹. Moreover, the koff in data set [2] (setting [11]), in [2] (setting [12]) and in [2] (setting [13]) was less than 1e-07 s⁻¹ in each case. In [2] (Table 1 of the earlier manuscript version, quoted by Reviewer #2, superseded), this compound had a Kd of less than 1 nM. Moreover, the IC50 in data set [3] worked out at 53 nM. Further, the “Cell death (AnnV+PI)” value with Vero-E6 cells [4] (24 h, EXP1, flow cytometry) was 3.3%; with Vero-E6 cells [4] (24 h, EXP2, flow cytometry), 4.72%; in the data set on Vero-E6 cells [4] (24 h, EXP3, flow cytometry), 3.62%; in the data set on Vero-E6 cells [4] (48 h, EXP1, flow cytometry), 9%; in the data set on Vero-E6 cells [4] (48 h, EXP2, flow cytometry), 7%; in the data set with Vero-E6 cells [4] (48 h, EXP3, flow cytometry), 8%. In addition, the “Cell death (AnnV+PI)” value with Vero-E6 cells [4] (72 h, EXP1, flow cytometry) is on record as 4.4%; in the data set on Vero-E6 cells [4] (72 h, EXP2, flow cytometry), 2.34%; in the data set on Vero-E6 cells [4] (72 h, EXP3, flow cytometry), 2.25%; in the data set on Calu-3 cells [6] (EXP1, peptide 10 µM, 24 h (0 µM: 16%)), 21%; with Calu-3 cells [6] (EXP1, peptide 10 µM, 48 h (0 µM: 18%)), 19%; in the data set on Calu-3 cells [6] (EXP1, peptide 10 µM, 72 h (0 µM: 23%)) it was 19%. For the same compound, the “Cell death (AnnV+PI)” value with Calu-3 cells [6] (EXP2, peptide 10 µM, 24 h (0 µM: 13%)) is listed as 16%; in the data set on Calu-3 cells [6] (EXP2, peptide 10 µM, 48 h (0 µM: 17%)) it was 19%; in the data set with Calu-3 cells [6] (EXP2, peptide 10 µM, 72 h (0 µM: 20%)) it was 23%; with Calu-3 cells [6] (EXP3, peptide 10 µM, 24 h (Vehicle: 15%)) it was 20%; with Calu-3 cells [6] (EXP3, peptide 10 µM, 48 h (Vehicle: 18%)) it was 20%; with Calu-3 cells [6] (EXP3, peptide 10 µM, 72 h (Vehicle: 22%)) it was 22%. In the data set on Vero-E6 cells [5] (48 h, 10 µM), the “Cell viability (MTT)” value worked out at 95%. Further, the “toxicity in Vero-E6” value with Vero-E6 cells [5] (MTT 0.1-10 µM and annexin-V/PI 10 µM, 24, 48 or 72 h (Fig. 3c)) is listed as “devoid of toxicity”. In addition, the “SARSCoV-2 virus titer at 1 μM (PFU mL^−1) on Calu-3” value in data set [7] turned out to be 0 PFU mL^−1. In data set [7] (pulmonary cells, 1 µM), the “efficacy in reducing SARS-CoV-2 viral titers” value turned out to be 100%. Besides, the “RT, HPLC retention time” value in data set [8] is listed as 2,31 min. The “cytotoxicity in uninfected Calu-3 cells” value with Calu-3 cells [9] is “no cytotoxicity”. Further, the Experimental helical content% in data set [10] is reported as 53%.
Ac-SALEEQLKTFLDKFLHELEDLLYQLAL-NH2 [P4]: in data set [1], the “% Inhibition of SARSCoV-2 replication at 10 μM” value (from here on “% Inhibition … at 10 μM”) was 24%; the “% Inhibition, Moyenne” value is listed as 24.0%; the “% Inhibition, Q2 (Median)” value is on record as 16.9%. Further, in data set [8], the “RT, HPLC retention time” value is reported as 2,69 min. In [10], this compound gave an Experimental helical content% of 70%.
Consider “H-AHLFSYLTTKEEQDNDAIFLQEFSKES-NH2 [P1scr, reference compound]”, for which, in data set [1], the “% Inhibition … at 10 μM” value was found to be 7%; the “% Inhibition, Moyenne” value is 6.7%; the “% Inhibition, Q2 (Median)” value came to 6.4%. Further, the “RT, HPLC retention time” value in [8] was 1,54 min. Moreover, the Experimental helical content% in [10] stood at 8%.
With H-SALEEQLKTFLDKFLHELEDLLYQLAL-NH2 [P3], in data set [1], the “% Inhibition … at 10 μM” value came out at 4%; the “% Inhibition, Moyenne” value is 3.9%; the “% Inhibition, Q2 (Median)” value came to 3.3%. The “RT, HPLC retention time” value in data set [8] is 2,53 min. In data set [10], the Experimental helical content% was found to be 64%.
On to “H-SALEEQLKTFLDKFLHELEDLLYQLALAL-NH2 [P6]”, for which, in [1], the “% Inhibition, Moyenne” value is recorded as 6.5% and the “% Inhibition, Q2 (Median)” value was found to be 4.9%. In addition, the “RT, HPLC retention time” value in [8] is reported as 2,74 min. Further, the Experimental helical content% in data set [10] was found to be 80%.
Take H-SALEEQLKTFLDKFLHELEDLLYQLSL-NH2 [P2]: in [1], the “% Inhibition … at 10 μM” value came out at 16%; the “% Inhibition, Moyenne” value came to 16.0%; the “% Inhibition, Q2 (Median)” value is on record as 20.0%. The “RT, HPLC retention time” value in data set [8] is 1.47 min. In addition, the Experimental helical content% in data set [10] is on record as 70%.
The like results for H-SALEEQLKTFLDKFLHELEDPLYQLAL-NH2 [P5] were, in that order, 27%, 26.6%, 20.4%, 2,16 min and 17%.

In general, Kd refers to a measure of binding affinity in units of concentration. Read a high Kd as weaker binding. Usually IC50 stands for the concentration that inhibits the measured activity by half.
